# Data: US20110183911A1, “METHOD FOR IMPROVING NEUROTRANSMISSION FAILURE USING A NOVEL AGENT” (JURIDICAL FOUNDATION THE CHEMO-SERO-THERAPEUTIC RESEARCH …, priority 2002, published 2011)
# Read-outs that look alike come from different tables or passages of the source.
# What was measured:
# NG108-15 cells = test: Activity to accelerate synaptic formation: differentiation of NG108-15 cells, anti-Rab3a immunostaining; format: cell-based, rat; details: Selenoprotein P 4.36 μg/mL
# Protocol: In order to study the effect of Selenoprotein P on synaptic formation, differentiation to neurons was examined using NG108-15 cells (hybridoma of rat neuroblastoma and rat glioma: ATCC NO. HB-12317) which has widely been used for study of synaptic formation and a receptor. NK108-15 cells were seeded to DME supplemented with 10% fetal calf serum and HAT (hypoxanthine, aminopterin and thymidine) in 35 mm polyornithine-coated dish and incubated at 37° C., 10% CO2. After 1 to 2 days, the culture medium was replaced with DMEM (serum free medium) supplemented with 1% fetal calf serum and HT (hypoxanthine and thymidine) and 0.1 mM dibutyl cyclic AMP (abcAMP) was added to induce differentiation while Selenoprotein P at 4.36 μg/mL was added to the medium followed by culture for 3 days. After culture, the dish attached with a sheet of cells was rinsed twice with phosphate buffered saline (hereinafter referred to as PBS) to wash the culture. Cellular proteins were then fixed with paraformaldehyde adjusted to 4% with PBS. After fixation at room temperature for 30 minutes, the dish was rinsed twice with PBS to remove a fixing solution. […]
# The nerve cell bodies had also a number of short neurites. […] A proportion of synapses specifically dyed with the anti-Rab3a antibody was then calculated with Mac SCOPE (manufactured by Mitani Corporation), a software for image analysis for Mackintosh, to measure immunopositive spots. […] Therefore, those spots with R value alone could be extracted with the analysis software and measured. In addition, the number of varicosity with no immunological reaction was measured manually and then a proportion (%) of the number of immunopositive varicosity among a total number of varicosity in the photographed picture was calculated.
# acetylcholine receptors = test: Pilocarpine-induced convulsion in mice (function of acetylcholine receptor); format: in vivo; details: ICR male mice
# Protocol: In order to study the effect of Selenoprotein P on cholinergic neurons, to mice was administered pilocarpine that agonistically acted on acetylcholine receptors present on junctions (synaptic terminal) between neurons and between neurons and muscle to thereby induce convulsion. Pilocarpine, having a parasympathetic nerve-stimulating activity, will induce clonic convulsion in the limbs leading to systemic convulsion when administered to mice.
# Twelve ICR male mice (weighing 30 to 43 g; purchased from CLEA Japan, Inc.) of nine weeks old were divided into two groups (6 animals/group) and tested. One hour before administration of pilocarpine, Selenoprotein P prepared at a concentration of 2.5 mg/mL with saline was administered to mice at 0.5 mg of Selenoprotein P per animal (200 μL) as a test group. For a control group, an equivalent amount of saline was administered intraperitoneally. Pilocarpine (pilocarpine hydrochloride, Wako Pure Chemical Industries, Ltd.) was prepared at 100 mg/mL with saline and administered to mice intraperitoneally at 270 to 320 mg/kg. Immediately after administration, mice were photographed with a digital video for record of experiment. Observation was made for 60 minutes after administration of pilocarpine. Time required for developing systemic convulsion and survival of the animals were taken for criteria of assessment. […]
# cultured primary neurons = test: Activation of primary neurons by NO (SNAP): mitochondrial dehydrogenase activity, Cell Counting kit-8; format: cell-based; details: mouse primary neurons, 15 hours, fragment 0.26 μM as selenium (FIG. 3)
# Text: In order to study the effect of Selenoprotein P on the neurotic activity of NO as synaptic neurotransmitter, cultured primary neurons were subject to the action of an NO generator, S-nitroso-N-acetyl-DL-penicillamine (SNAP, manufactured by DOJINDO LABORATORIES), in the presence of Selenoprotein P to determine as to whether a respiratory capacity of neuronal mitochondria is altered in the presence of Selenoprotein P. For determination of a respiratory capacity of mitochondria, a kit was used that readily measured the dehydrogenase activity in the mitochondrial inner membrane (Cell Counting kit-8, manufactured by DOJINDO LABORATORIES).
# Fetus was removed from C57BL/6 mouse of 14-day pregnancy (purchased from Charles River Japan, Inc.). The cerebral cortex from the fetus was treated and dispersed with 0.25% trypsinized EDAT and then cultured in Neurobasal Medium (Gibco BRL.) supplemented with B27 supplement (Gibco ERL.) in 5% CO2 incubator at 37° C. for culture of primary neurons. […] After developing reaction, each 100 μL of the culture supernatant was transferred to a 96-well microtiter plate and then absorption was measured at a wave-length of 450 nm with a microtiter plate reader with a reference wave-length of 650 nm.
# [1] = Cell death-inhibitory activity of purified fractions; format: cell-based; details: fractions purified from plasma (Preparation 1)
# cell culture [2] = tested on: cell culture
# cell culture [3] = test: Toxicity when added to cell culture
Compound,"Morphology of differentiated cells (neurites, varicosity) (NG108-15 cells; 3 days)","Rab3a-dyed particles on neurites (FIG. 1) (NG108-15 cells; 3 days, anti-Rab3a monoclonal antibody)","Proportion of Rab3a-immunopositive cells ± SD (NG108-15 cells; differentiation with dibutyl cyclic AMP, culture for 3 days, immunopositive varicosity among total varicosity) [%]",Time for developing systemic convulsion compared to control group (acetylcholine receptors; 0.5 mg Selenoprotein P per animal 1 hour before pilocarpine),"Mortality after challenge with pilocarpine compared to control group (FIG. 2) (acetylcholine receptors; 0.5 mg Selenoprotein P per animal, observation 60 minutes)","Mitochondrial respiratory capacity of the neurons in the presence of NO generator SNAP (cultured primary neurons; SNAP 50 μM, Selenoprotein P or sodium selenite 1 μM)","Activity of dehydrogenase of the mitochondrial inner membrane (mitochondrial respiratory capacity), without SNAP (cultured primary neurons; no SNAP, Selenoprotein P 1 μM)",Cell death-inhibitory activity per proteins [1],Toxicity (cell culture [2]),Toxicity (cell culture [3])
"Selenoprotein P: selenocysteine-containing plasma protein (SEQ ID NO: 1), full-length 64 kDa, purified from human plasma (Preparation 2)",complexity in development of neurites as well as much particulate varicosity,a large number of Rab3a-dyed knotty particles on neurites,66.0 ± 2.75,significantly shortened,apparently decreased mortality,significantly increased,tended to show an increased activity,much lower than that of the fragment thereof,no such a high toxicity could be observed,–
N[C@@H](C[Se][Se]C[C@H](N)C(=O)O)C(=O)O [selenocystine],–,–,–,–,–,–,–,–,–,considerably high toxicity
